Assay results published in US20090280110A1, “Cell Model for Alzheimer's Disease Pathology” (UNIVERSITY OF VIRGINIA PATENT FOUNDATION, priority 2006, published 2009).
Entries after “also recorded” stand apart in the source; their conditions may differ.

Tests used:
[1] = tested on: primary rat cortical neurons; assay: Immunofluorescence and electron microscopy of neurons treated with Aβ42; format: cell-based; settings: 1 μM
Protocol: (§1) Cell Culture: CV-1 (African green monkey kidney) cells were cultured in DMEM (Dulbecco's modified Eagle's Medium; GIBCO) supplemented with 10% Cosmic Calf Serum (Hyclone) and 50 μg/ml gentamycin. Cells were transiently transfected using Fugene (Roche) with cDNAs for the longest human isoform of tau, or the projection domain (amino acids 1-248) of tau linked at their C-terminals to eCFP or eYFP (Clontech); with YFP-α-tubulin (Clontech); or with GFP-MAP2c or GFP-MAP2c/tau chimeras (Roger et al., 2004), which were generous gifts of Dr. Shelley Halpain. Primary cortical neurons were purchased from Genlantis and cultured according to their guidelines. Primary hippocampal neurons (Wisco et al., 2003) were grown for at least 8 days prior to Aβ treatment. The tau siRNA (Darmacon SMARTpool) and control scrambled siRNA (Darmacon non-specific duplex II) were transfected into primary hippocampal neurons using the rat neuron Nucleofection system (Amaxa) and program G-13 (Qiang et al., 2006). Cells were cultured for 4 days after Nucleofection, and then were exposed to Aβ.
Microscopy: Confocal live cell imaging and immunofluorescence microscopy were performed on a Zeiss Axiovert 100 using Openlab 4.0 (Improvision) software, as previously described (Mateer et al., 2002). […]

[2] = tested on: microtubules in primary hippocampal neurons; assay: Triton X-100 extraction partitioning soluble and polymerized tubulin, immunoblotting; format: cell-based, rat; settings: 2 hours
Protocol: Microtubule Extraction/Blotting: Primary hippocampal neurons were treated with 1-3 μM pre-fibrillar or fibrillar Aβ42. Cells were washed with PBS, and extracted with Triton X-100 in a microtubule stabilizing buffer (Black et al., 1996). Briefly, cells were incubated with PHEM buffer (60 mM PIPES pH 6.9, 25 mM HEPES, 10 mM EGTA, 2 mM MgCl2) with 10 μM taxol, and 0.2% Triton X-100 for 5 minutes. The buffer was collected and centrifuged for 5 minutes at maximum speed in an Eppendorf model 5415 table top centrifuge, and the supernatant removed and added to sample buffer. An equivalent volume of PHEM buffer and sample buffer was added to the dish, and this sample was added to the pellet from the spin. Equal volumes of supernatants and pellets, which respectively contained soluble and polymerized tubulin (Black et al., 1996), were then analyzed by immunoblotting with DM1α monoclonal anti-α-tubulin (Sigma) and monoclonal tau-5. DM1α (Blose et al., 1984) and tau-5 (Loomis et al., 1990) recognize all isoforms or α-tubulin and tau, respectively, independently of post-translational modifications. Quantitation of scanned immunoreactive α-tubulin bands was performed using the public domain image processing software, Image J at the NIH website.

CV-1 cell microtubules = assay: Time lapse fluorescence microscopy of microtubules in transfected CV-1 cells treated with Aβ; format: cell-based, African green monkey
Protocol: as §1
Aβ treatment: Previously described methods were used to synthesize (Burdick et al., 1992) and resuspend (Kayed et al., 2003) Aβ42 and Aβ40. The Aβ was added to cells cultured in serum-free DMEM to final concentrations from 0.1-5 μM. Pre-fibrillar Aβ was used in the first and second days following resuspension, while fibrillar Aβ was used following at least 7 days of stirring.
Microscopy: Confocal live cell imaging and immunofluorescence microscopy were performed on a Zeiss Axiovert 100 using Openlab 4.0 (Improvision) software, as previously described (Mateer et al., 2002). For electron microscopy, primary cortical and hippocampal neurons were grown on glass coverslips, treated with Aβ42, and fixed in 2.5% glutaraldehyde+0.5% tannic acid in 0.1 M cacodylate buffer pH 7.4. Cells on coverslips were dehydrated and capsule embedded in EPON, and the glass coverslip was removed from the EPON by alternating liquid nitrogen and warm water submersion of the capsule. Sectioned samples were viewed on a JEOL JEM 1010 electron microscope at 80 kV and images captured using a SA1-12c 16 megapixel cooled CCD (Scientific Instruments and Applications, Inc).

tau = assay: Western blotting with phosphorylation-sensitive anti-tau antibodies (PHF-1, AT180, tau-1); format: cell-based; settings: primary rat hippocampal neurons, 1 μM, 2 hours
Description: Antibodies: Tau-5, Tau-1, and R1 tau were generous gifts of Dr. Lester Binder, and PHF-1 was kindly provided by Dr. Peter Davies. AT180 (Pierce Endogen), DM1α (Sigma Chemical), Actin C4 (Chemicon), fluorescently tagged goat anti-mouse IgG and goat anti-rabbit (Southern Biotech), and HRP-labeled goat anti-mouse IgG (KPL) were acquired from the indicated commercial sources.

| Substance | neurite morphology by immunofluorescence ([1]; 30 minutes) | neurite microtubules by electron microscopy ([1]; 2 hours) | change in tubulin levels in response to Aβ42 in tau siRNA-treated cells ([2]; primary neurons with tau siRNA, 2 μM, compared to tau expressing cells) | time after addition until tau dissociated from microtubules (CV-1 cell microtubules; CV-1 cells co-expressing tau-CFP and YFP-tubulin, 0.1-3 μM) [h] | concentration added to culture media at which tau dissociated from microtubules, which completely disassembled soon thereafter (CV-1 cell microtubules; CV-1 cells co-expressing tau-CFP and YFP-tubulin, within 1-2 hours) [µM] | microtubule integrity in cells without tau (CV-1 cell microtubules; CV-1 cells expressing YFP-tubulin but not tau-CFP, as much as 3 μM, more than two hours) | effect on tau and microtubules in tau-expressing cells (CV-1 cell microtubules; CV-1 cells with tau-CFP and YFP-tubulin, 1 μM, 0-120 minutes (FIG. 1a)) | microtubules in cells expressing the N-terminal arm (projection domain) of tau coupled to CFP (CV-1 cell microtubules; CV-1 cells, 1 μM) | microtubules in cells expressing GFP-tau chimera (CV-1 cell microtubules; CV-1 cells, 1 μM, less than an hour) | microtubules in cells expressing GFP-MAP2c chimera (CV-1 cell microtubules; CV-1 cells, 1 μM, more than 2 hours) | microtubule integrity in cells expressing GFP-MAP2c (CV-1 cell microtubules; CV-1 cells, 1 μM, over 2 hours) | AD-like tau phosphorylation (tau) | tubulin polymerized ([2]; primary hippocampal neurons, 3 μM, about 90% in cells not exposed) [%] | microtubule integrity in tau-expressing cells (CV-1 cell microtubules; CV-1 cells expressing tau-CFP, as much as 5 μM, more than two hours) | microtubules in tau-expressing cells (CV-1 cell microtubules; tau-expressing CV-1 cells, 3 μM, 0-140 minutes (FIG. 1c)) |
| --- | --- | --- | --- | --- | --- | --- | --- | --- | --- | --- | --- | --- | --- | --- | --- |
| pre-fibrillar Aβ42: synthesized Aβ42 peptide used in the first and second days following resuspension; monomers to oligomers | swollen varicosities | fewer, less organized microtubules; also recorded: numerous varicosities that were filled with membrane-bound organelles and lacked microtubules | no change | 1 to 2 | 0.1 to 3 | remained intact | caused tau to dissociate from microtubules, and the microtubules to disassemble soon thereafter | depolymerized | depolymerized | remained intact | did not cause any apparent loss of microtubule integrity; also recorded: remained intact | did not cause increased AD-like tau phosphorylation | – | – | – |
| fibrillar Aβ42: synthesized Aβ42 peptide used following at least 7 days of stirring | – | – | – | – | – | – | – | – | – | – | – | – | 65 | unaffected | unaffected |
